This note sets out measurements from patent US20090069418A1, “Compositions and Methods for the Treatment of Disorders Associated with Aberrant Vasodilation” (priority 2007, published 2009).

Assay [1] deals with C57Bl/6 mice. Nature of the assay: Middle cerebral artery occlusion in mice, infarct size (Example 2). Type of assay: in vivo. The settings on record: for infarct size after 2-hour MCAO: vehicle 33±2%; for reduction of infarct size compared with vehicle: 10 mg/kg. Here is the method: (2001) J. Neurosci., 21:7543-50). […] A small laser-Doppler probe was affixed to the skull to monitor cortical perfusion and verify vascular occlusion and reperfusion. […] After securing the filament in place, the surgical site was closed, and the animal was awakened and assessed at 2 hours of occlusion for neurological deficit using a simple neurological scoring system as follows: 0=no deficit, 1=failure to extend forelimb, 2=circling, 3=unilateral weakness, 4=no spontaneous motor activity. Mice with clear neurological deficit were re-anesthetized, laser-Doppler probe re-positioned over same site on the skull, and the occluding filament was withdrawn to allow for reperfusion. Mice were then allowed to recover and observed for 1 day. […] Slices were photographed, and infarcted (unstained) and uninfarcted (red color) areas were measured with MCID software (InterFocus Imaging Ltd, Linton, UK) and integrated across all five slices. To account for the effect of edema, the infarcted area was estimated indirectly by subtracting the uninfarcted area in the ipsilateral hemisphere from the contralateral hemisphere, and expressing infarct volume as a percentage of contralateral hemisphere. […] (2000) J. Physiol. Pharmacol., 51:655-72). […] Animals were randomly assigned to treatment groups.

In assay [2] the target is T1, soluble epoxide hydrolase (Mus musculus, UniProt P34914).
T1 construct: from tissue; host or cells: mouse brain (C57Bl/6), cytosolic or peroxisomal fractions
T1 sequence (P34914 1-554): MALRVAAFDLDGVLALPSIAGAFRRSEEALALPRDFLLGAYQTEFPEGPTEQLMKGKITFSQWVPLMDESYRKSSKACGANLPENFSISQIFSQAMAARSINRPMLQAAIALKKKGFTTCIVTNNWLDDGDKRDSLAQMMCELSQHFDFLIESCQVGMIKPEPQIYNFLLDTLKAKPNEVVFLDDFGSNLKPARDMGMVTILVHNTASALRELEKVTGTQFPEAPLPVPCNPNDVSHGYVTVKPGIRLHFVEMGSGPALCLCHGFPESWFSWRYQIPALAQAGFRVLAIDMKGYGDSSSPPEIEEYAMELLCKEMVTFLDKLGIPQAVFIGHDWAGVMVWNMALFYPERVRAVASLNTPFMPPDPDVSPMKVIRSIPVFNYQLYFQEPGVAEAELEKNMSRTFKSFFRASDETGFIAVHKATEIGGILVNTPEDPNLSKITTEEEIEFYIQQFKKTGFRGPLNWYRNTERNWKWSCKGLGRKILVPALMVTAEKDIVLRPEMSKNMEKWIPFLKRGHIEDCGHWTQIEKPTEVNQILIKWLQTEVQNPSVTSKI
Nature of the assay: Soluble epoxide hydrolase activity assay in brain after systemic AUDA-BE ([3H]-tDPPO substrate). It counts as in vivo. Here is the method: Rate of hydration of tDPPO is determined by liquid scintillation spectroscopy after differential extraction of the epoxide and diol. Briefly, cytosolic or peroxisomal fractions were incubated at 37° C. in 100 μL incubation mixtures containing sodium phosphate buffer (90 mmol/L, pH 7.4) and tDPPO (1 to 50 μmol/L in 1 μL dimethylformamide). Incubations were stopped after 5 minutes with the addition of 60 μL methanol and 200 μL isooctane. Zero-time and zero-protein incubations served as blanks. Incubations were vortexed vigorously to extract the substrate into the isooctane (the diol metabolite remains in the aqueous phase). A known aliquot of the aqueous phase was removed and added to 1 mL scintillation cocktail for scintillation counting. Extraction efficiency exceeded 91%.
It should be noted that these sEH inhibitors are reversible transition state inhibitors. Thus, the levels of inhibition are certain to be above those detected due to dilution of the sample during work up.

By inhibition is commonly meant the percentage by which the read-out fell short of the control. Regarding `CCCCOC(=O)CCCCCCCCCCCNC(=O)NC12CC3CC(CC(C3)C1)C2` [AUDA-BE, 12-(3-adamantane-1-yl-ureido)-dodecanoic acid butyl ester], the “infarct size after 2-hour MCAO” value stood at 20±5% in assay [1] (10 mg/kg intraperitoneally 1 hour before (pre)) and 16±6% in assay [1] (10 mg/kg intraperitoneally at the time of reperfusion (post)). Besides, the “reduction of infarct size compared with vehicle” value was found to be 40% in assay [1] (1 hour before (pre)) and 50% in assay [1] (at the time of reperfusion (post)). In assay [1] (AUDA-BE 10 mg/kg at reperfusion combined with MS-PPOH (0.5 mg/200 mL over 24 hours before MCAO, osmotic minipump)), the “infarct size after MCAO” value stood at 34±7%. Besides, the “average brain sEH activity over 24 hours” value in assay [2] (AUDA-BE 10 mg/kg intraperitoneally, 1, 3, 6 and 24 hours, vehicle 1.92±0.06 nmol/mg) is on record as 1.56±0.13 nmol/mg protein. The inhibition at 10 mg/kg in assay [2] (mouse, ip, read-out: inhibition of brain sEH activity) was at least 20%.
